ChEMBL document CHEMBL1817609, “SAR studies of 4-pyridyl heterocyclic anilines that selectively induce autophagic cell death in von Hippel-Lindau-deficient renal cell carcinoma cells” (Bioorg Med Chem, 2011)
pIC50: −log10 of the molar value. Activity calls are given as the source filed them. The calls are words filed in the database; no cut-off is given here.

Key:
[1] = Growth inhibition of human RCC4 cells after 4 days by XTT assay; assay type: functional, cell-based; conditions: RCC4, 96 h; for pIC50: read-out: IC50; for IC50: read-out: pIC50 (converted)
[2] = Growth inhibition of human RCC4/VHL cells after 4 days by XTT assay; assay type: functional, cell-based; conditions: 96 h
[3] = Selectivity ratio IC50 for human RCC4/VHL cells to IC50 for human RCC4 cells; assay type: functional
RCC4 = experiment: Induction of autophagy in human RCC4 cells assessed as formation of intracytoplasmic vacuoles at 5 uM after 24 hrs by phase contrast microscopy; assay type: functional, cell-based

SMILES	pIC50 [1]	IC50 [1] [µM]	pIC50 [2]	Ratio IC50 [3]	Activity (RCC4)
Cc1cccc(Nc2nc(-c3ccncc3)cs2)c1	5.68	2.14	4.40	19	Active
Cc1cccc(Nc2nc(-c3ccnc(-c4cc[nH]n4)c3)cs2)c1	6.32	0.49	4.70		Active
Cc1cccc(Nc2nc(-c3ccncc3C#CCN3CCOCC3)cs2)c1	6.24	0.575	5.64	4	Active
Cc1cccc(Nc2nc(-c3ccncc3OCCCN(C)C)cs2)c1	5.57	2.75	4.69	7.4	Active
Cc1cccc(Nc2nc(-c3ccnc(OCCN4CCOCC4)c3)cs2)c1	5.15	7.08	4.68	3	
Cc1cccc(Nc2nc(-c3ccnc(-c4cncnc4)c3)cs2)c1	4.58	26.9	4.43	1.4	
Cc1cccc(Nc2nc(-c3ccncc3OCCN3CCOCC3)cs2)c1	6.49	0.324	6.06	2.8	
Cc1cccc(Nc2nc(-c3ccnc(NCCN4CCOCC4)c3)cs2)c1	5.43	3.72	5.10	2.2	
Cc1cccc(Nc2nc(-c3ccnc(-c4cnn(Cc5ccccc5)c4)c3)cs2)c1	5.66	2.24	4.18	30	Active
Cc1cccc(Nc2nc(-c3ccncc3N3CCN(C)CC3)cs2)c1	5.59	2.63	5.18	2.5	
Cc1cccc(Nc2cc(-c3ccncc3)ncn2)c1	4.64	23.4	4.55	1.2	
Cc1cccc(Nc2nc(-c3ccncc3-c3ccc(C(=O)N4CCN(C)CC4)cc3)cs2)c1	4.89	12.9	< 4.40	>3.1	
Cc1cccc(Nc2nc(-c3ccnc(-c4cn(Cc5ccccc5)nn4)c3)cs2)c1	5.68	2.14	4.85	6.7	
Cc1cccc(Nc2cccc(-c3ccncc3)c2)c1	4.43	37.2	4.42	1	
